# Organism: Rattus norvegicus
# Experiment: DrugMatrix - Regimen: Daily Repeat
# Assay type: toxicity, organism-based, Sprague-Dawley
# Design: regimen Daily Repeat, gender Male, age 6-8 weeks
# Settings: in vivo, po, route oral GAVAGE, […]; for ABSOLUTE BASOPHIL / ABSOLUTE EOSINOPHIL / ABSOLUTE LYMPHOCYTE / ABSOLUTE MONOCYTE / ABSOLUTE SEGMENTED NEUTROPHIL / BASOPHIL / EOSINOPHIL / ERYTHROCYTE COUNT / HEMATOCRIT / HEMOGLOBIN / LEUKOCYTE COUNT / LYMPHOCYTE / MEAN CORPUSCULAR HEMOGLOBIN / MEAN CORPUSCULAR HEMOGLOBIN CONCENTRATION / MEAN CORPUSCULAR VOLUME / MONOCYTE / NEUTROPHIL / NUCLEATED RED BLOOD CELLS / PLATELET COUNT: tissue Blood; for ALANINE AMINOTRANSFERASE / ALBUMIN / ALKALINE PHOSPHATASE / ASPARTATE AMINOTRANSFERASE / BLOOD UREA NITROGEN / CARBON DIOXIDE / CHLORIDE / CHOLESTEROL / CREATINE PHOSPHOKINASE / CREATININE / GLUCOSE / LACTATE DEHYDROGENASE / LIPASE / PHOSPHORUS / POTASSIUM / SODIUM / TOTAL BILIRUBIN / TOTAL PROTEIN / URIC ACID: tissue Plasma
# [1] = 1 mg/kg, 120 h, dose level Low, time 5 day
# [2] = 9 mg/kg, 72 h, dose level High, time 3 day
# [3] = 9 mg/kg, 120 h, dose level High, time 5 day
structure (smiles),measurement,setting,value
O=C(O)COC(=O)Cc1ccccc1Nc1c(Cl)cccc1Cl [ACECLOFENAC],ABSOLUTE BASOPHIL,[1],0 CELLS/uL
same,ABSOLUTE EOSINOPHIL,[1],38.33 CELLS/uL
same,ABSOLUTE LYMPHOCYTE,[1],9464 CELLS/uL
same,ABSOLUTE MONOCYTE,[1],76.67 CELLS/uL
same,ABSOLUTE SEGMENTED NEUTROPHIL,[1],854.33 CELLS/uL
same,BASOPHIL,[1],0%
same,EOSINOPHIL,[1],0.33%
same,ERYTHROCYTE COUNT,[1],5.79 x10E6/uL
same,HEMATOCRIT,[1],35.33%
same,HEMOGLOBIN,[1],13.3 G/DL
same,LEUKOCYTE COUNT,[1],10.43 x10E3/uL
same,LYMPHOCYTE,[1],90.67%
same,MEAN CORPUSCULAR HEMOGLOBIN,[1],23 pg
same,MEAN CORPUSCULAR HEMOGLOBIN CONCENTRATION,[1],37.7 G/DL
same,MEAN CORPUSCULAR VOLUME,[1],61.07 fL
same,MONOCYTE,[1],0.67%
same,NEUTROPHIL,[1],8.33%
same,NUCLEATED RED BLOOD CELLS,[1],0 /100WBC
same,PLATELET COUNT,[1],1057.67 x10E3/uL
same,ALANINE AMINOTRANSFERASE,[1],60.67 u/L
same,ALBUMIN,[1],4.07 G/DL
same,ALKALINE PHOSPHATASE,[1],388 u/L
same,ASPARTATE AMINOTRANSFERASE,[1],80.67 u/L
same,BLOOD UREA NITROGEN,[1],14.33 mg/dL
same,CARBON DIOXIDE,[1],30.33 mmol/L
same,CHLORIDE,[1],101.33 MEQ/L
same,CHOLESTEROL,[1],53.33 mg/dL
same,CREATINE PHOSPHOKINASE,[1],180.67 u/L
same,CREATININE,[1],0.15 mg/dL
same,GLUCOSE,[1],160.67 mg/dL
same,LACTATE DEHYDROGENASE,[1],106 u/L
same,LIPASE,[1],9 u/L
same,PHOSPHORUS,[1],9.9 mg/dL
same,POTASSIUM,[1],5.17 MEQ/L
same,SODIUM,[1],143 MEQ/L
same,TOTAL BILIRUBIN,[1],0.23 mg/dL
same,TOTAL PROTEIN,[1],5.8 G/DL
same,URIC ACID,[1],0.83 mg/dL
same,ABSOLUTE BASOPHIL,[2],0 CELLS/uL
same,ABSOLUTE EOSINOPHIL,[2],21.67 CELLS/uL
same,ABSOLUTE LYMPHOCYTE,[2],7429.67 CELLS/uL
same,ABSOLUTE MONOCYTE,[2],92.33 CELLS/uL
same,ABSOLUTE SEGMENTED NEUTROPHIL,[2],1189.67 CELLS/uL
same,BASOPHIL,[2],0%
same,EOSINOPHIL,[2],0.33%
same,ERYTHROCYTE COUNT,[2],5.12 x10E6/uL
same,HEMATOCRIT,[2],32.1%
same,HEMOGLOBIN,[2],12.63 G/DL
same,LEUKOCYTE COUNT,[2],8.73 x10E3/uL
same,LYMPHOCYTE,[2],84.67%
same,MEAN CORPUSCULAR HEMOGLOBIN,[2],24.73 pg
same,MEAN CORPUSCULAR HEMOGLOBIN CONCENTRATION,[2],39.37 G/DL
same,MEAN CORPUSCULAR VOLUME,[2],62.73 fL
same,MONOCYTE,[2],1.33%
same,NEUTROPHIL,[2],13.67%
same,NUCLEATED RED BLOOD CELLS,[2],0 /100WBC
same,PLATELET COUNT,[2],823.33 x10E3/uL
same,ALANINE AMINOTRANSFERASE,[2],57 u/L
same,ALBUMIN,[2],3.37 G/DL
same,ALKALINE PHOSPHATASE,[2],253 u/L
same,ASPARTATE AMINOTRANSFERASE,[2],77.33 u/L
same,BLOOD UREA NITROGEN,[2],10.67 mg/dL
same,CARBON DIOXIDE,[2],34 mmol/L
same,CHLORIDE,[2],99 MEQ/L
same,CHOLESTEROL,[2],73.67 mg/dL
same,CREATINE PHOSPHOKINASE,[2],625.67 u/L
same,CREATININE,[2],0.12 mg/dL
same,GLUCOSE,[2],160.67 mg/dL
same,LACTATE DEHYDROGENASE,[2],163.33 u/L
same,LIPASE,[2],8.67 u/L
same,PHOSPHORUS,[2],11.57 mg/dL
same,POTASSIUM,[2],6.06 MEQ/L
same,SODIUM,[2],143.37 MEQ/L
same,TOTAL BILIRUBIN,[2],0.13 mg/dL
same,TOTAL PROTEIN,[2],5.3 G/DL
same,URIC ACID,[2],1.03 mg/dL
same,ABSOLUTE BASOPHIL,[3],0 CELLS/uL
same,ABSOLUTE EOSINOPHIL,[3],0 CELLS/uL
same,ABSOLUTE LYMPHOCYTE,[3],9903.33 CELLS/uL
same,ABSOLUTE MONOCYTE,[3],435.33 CELLS/uL
same,ABSOLUTE SEGMENTED NEUTROPHIL,[3],2861.33 CELLS/uL
same,BASOPHIL,[3],0%
same,EOSINOPHIL,[3],0%
same,ERYTHROCYTE COUNT,[3],4.91 x10E6/uL
same,HEMATOCRIT,[3],29.6%
same,HEMOGLOBIN,[3],11.33 G/DL
same,LEUKOCYTE COUNT,[3],13.2 x10E3/uL
same,LYMPHOCYTE,[3],75.33%
same,MEAN CORPUSCULAR HEMOGLOBIN,[3],23.1 pg
same,MEAN CORPUSCULAR HEMOGLOBIN CONCENTRATION,[3],38.33 G/DL
same,MEAN CORPUSCULAR VOLUME,[3],60.27 fL
same,MONOCYTE,[3],3.33%
same,NEUTROPHIL,[3],21.33%
same,NUCLEATED RED BLOOD CELLS,[3],0.33 /100WBC
same,PLATELET COUNT,[3],1272 x10E3/uL
same,ALANINE AMINOTRANSFERASE,[3],58.33 u/L
same,ALBUMIN,[3],3.03 G/DL
same,ALKALINE PHOSPHATASE,[3],312 u/L
same,ASPARTATE AMINOTRANSFERASE,[3],78.33 u/L
same,BLOOD UREA NITROGEN,[3],12 mg/dL
same,CARBON DIOXIDE,[3],28.33 mmol/L
same,CHLORIDE,[3],101.67 MEQ/L
same,CHOLESTEROL,[3],58.33 mg/dL
same,CREATINE PHOSPHOKINASE,[3],296.67 u/L
same,CREATININE,[3],0.2 mg/dL
same,GLUCOSE,[3],165 mg/dL
same,LACTATE DEHYDROGENASE,[3],151 u/L
same,LIPASE,[3],10 u/L
same,PHOSPHORUS,[3],10.13 mg/dL
same,POTASSIUM,[3],5.79 MEQ/L
same,SODIUM,[3],144.97 MEQ/L
same,TOTAL BILIRUBIN,[3],0.13 mg/dL
same,TOTAL PROTEIN,[3],5.03 G/DL
same,URIC ACID,[3],1.1 mg/dL

# Reference: ChEMBL document CHEMBL3885881, “DrugMatrix”
